The values below come from ChEMBL document CHEMBL5715954, “Silencing c-Myc translation as a therapeutic strategy through targeting PI3Kδ and CK1ε in hematological malignancies” (Blood, 2017).

Common to all, as to set-up: scale not given: the % may be the effect or the level left
The target in test [1] is MAP/microtubule affinity-regulating kinase 3 (Homo sapiens) (UniProt P27448). The test can be described thus: Inhibition of human MARK3 assessed as enzyme activity at 1 uM using KKKVSRSGLYRSPSMPENLNRPR as substrate preincubated for 20 mins followed by [gamma-33P]-ATP addition and measured after 120 mins by radiometric Hot-SpotSM Kinase assay relative to control.
Test [2] addresses Vascular endothelial growth factor receptor 3 (Homo sapiens) (UniProt P35916). The test can be described thus: Inhibition of human FLT4 assessed as enzyme activity at 1 uM using poly[Glu:Tyr] (4:1) as substrate preincubated for 20 mins followed by [gamma-33P]-ATP addition and measured after 120 mins by radiometric Hot-SpotSM Kinase assay relative to control.
Test [3] addresses Ribosomal protein S6 kinase alpha-1 (Homo sapiens) (UniProt Q15418). Nature of the test: Inhibition of human RSK1 assessed as enzyme activity at 1 uM using KKLNRTLSVA as substrate preincubated for 20 mins followed by [gamma-33P]-ATP addition and measured after 120 mins by radiometric Hot-SpotSM Kinase assay relative to control.
The target of test [4] is T1, Tyrosine-protein kinase Mer (Homo sapiens) (UniProt Q12866).
T1 sequence (whole entry): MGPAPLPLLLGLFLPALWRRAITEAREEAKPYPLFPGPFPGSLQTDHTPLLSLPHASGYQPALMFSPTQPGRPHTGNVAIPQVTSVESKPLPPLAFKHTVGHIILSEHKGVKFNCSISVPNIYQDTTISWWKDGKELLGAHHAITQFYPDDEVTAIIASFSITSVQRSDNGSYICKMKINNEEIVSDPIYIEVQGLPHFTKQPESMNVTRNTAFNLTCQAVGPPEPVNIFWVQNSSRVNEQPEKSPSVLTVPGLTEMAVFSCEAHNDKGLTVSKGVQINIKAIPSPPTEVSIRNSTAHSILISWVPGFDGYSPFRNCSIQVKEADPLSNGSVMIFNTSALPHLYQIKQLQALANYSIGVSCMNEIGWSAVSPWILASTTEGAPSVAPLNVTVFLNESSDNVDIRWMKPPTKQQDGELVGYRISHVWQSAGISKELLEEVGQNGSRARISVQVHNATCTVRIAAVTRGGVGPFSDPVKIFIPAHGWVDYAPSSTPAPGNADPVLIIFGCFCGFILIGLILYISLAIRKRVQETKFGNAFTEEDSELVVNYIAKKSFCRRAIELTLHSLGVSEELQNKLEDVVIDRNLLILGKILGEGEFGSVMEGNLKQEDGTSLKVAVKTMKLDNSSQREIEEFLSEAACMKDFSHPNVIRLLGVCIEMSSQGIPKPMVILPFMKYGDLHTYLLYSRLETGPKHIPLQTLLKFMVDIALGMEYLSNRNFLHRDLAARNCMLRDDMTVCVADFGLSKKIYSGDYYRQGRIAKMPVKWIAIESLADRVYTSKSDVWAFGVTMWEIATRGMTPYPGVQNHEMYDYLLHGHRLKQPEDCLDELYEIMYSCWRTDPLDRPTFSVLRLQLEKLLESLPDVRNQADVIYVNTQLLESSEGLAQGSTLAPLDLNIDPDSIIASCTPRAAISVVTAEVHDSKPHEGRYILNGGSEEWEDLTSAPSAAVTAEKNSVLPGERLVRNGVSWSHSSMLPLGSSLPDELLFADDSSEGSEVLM
Nature of the test: Inhibition of human c-MER assessed as enzyme activity at 1 uM using poly[Glu:Tyr] (4:1) as substrate preincubated for 20 mins followed by [gamma-33P]-ATP addition and measured after 120 mins by radiometric Hot-SpotSM Kinase assay relative to control.

Test [5] addresses T2, Tyrosine-protein kinase ZAP-70 (Homo sapiens) (UniProt P43403).
T2 sequence (whole entry): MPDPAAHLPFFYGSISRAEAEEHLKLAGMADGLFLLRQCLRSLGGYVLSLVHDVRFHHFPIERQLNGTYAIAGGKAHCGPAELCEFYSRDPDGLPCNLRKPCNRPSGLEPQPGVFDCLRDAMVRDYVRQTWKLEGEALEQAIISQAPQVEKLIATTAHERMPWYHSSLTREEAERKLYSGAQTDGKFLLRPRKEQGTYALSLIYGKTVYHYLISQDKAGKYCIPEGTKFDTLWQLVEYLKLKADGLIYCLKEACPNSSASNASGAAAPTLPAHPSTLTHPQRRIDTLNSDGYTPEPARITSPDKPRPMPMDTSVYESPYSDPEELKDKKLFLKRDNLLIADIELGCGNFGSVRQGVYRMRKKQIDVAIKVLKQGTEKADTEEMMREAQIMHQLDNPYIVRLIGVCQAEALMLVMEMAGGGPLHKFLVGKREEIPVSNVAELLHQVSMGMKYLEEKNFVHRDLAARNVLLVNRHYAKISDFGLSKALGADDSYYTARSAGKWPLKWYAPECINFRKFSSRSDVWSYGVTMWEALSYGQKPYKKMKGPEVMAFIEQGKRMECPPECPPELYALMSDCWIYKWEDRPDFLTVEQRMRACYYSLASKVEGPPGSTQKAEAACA
The test can be described thus: Inhibition of human ZAP70 assessed as enzyme activity at 1 uM using poly[Glu:Tyr] (4:1) as substrate preincubated for 20 mins followed by [gamma-33P]-ATP addition and measured after 120 mins by radiometric Hot-SpotSM Kinase assay relative to control.

For test [6], the target named is Fibroblast growth factor receptor 4 (Homo sapiens) (UniProt P22455). The test can be described thus: Inhibition of human FGFR4 assessed as enzyme activity at 1 uM using poly[Glu:Tyr] (4:1) as substrate preincubated for 20 mins followed by [gamma-33P]-ATP addition and measured after 120 mins by radiometric Hot-SpotSM Kinase assay relative to control.
In test [7] the target is Dual specificity protein kinase CLK3 (Homo sapiens) (UniProt P49761). The test can be described thus: Inhibition of human CLK3 assessed as enzyme activity at 1 uM using myelin basic protein as substrate preincubated for 20 mins followed by [gamma-33P]-ATP addition and measured after 120 mins by radiometric Hot-SpotSM Kinase assay relative to control.
Chain of Dual specificity protein kinase CLK3 (Homo sapiens) (P49761 whole entry, looked up): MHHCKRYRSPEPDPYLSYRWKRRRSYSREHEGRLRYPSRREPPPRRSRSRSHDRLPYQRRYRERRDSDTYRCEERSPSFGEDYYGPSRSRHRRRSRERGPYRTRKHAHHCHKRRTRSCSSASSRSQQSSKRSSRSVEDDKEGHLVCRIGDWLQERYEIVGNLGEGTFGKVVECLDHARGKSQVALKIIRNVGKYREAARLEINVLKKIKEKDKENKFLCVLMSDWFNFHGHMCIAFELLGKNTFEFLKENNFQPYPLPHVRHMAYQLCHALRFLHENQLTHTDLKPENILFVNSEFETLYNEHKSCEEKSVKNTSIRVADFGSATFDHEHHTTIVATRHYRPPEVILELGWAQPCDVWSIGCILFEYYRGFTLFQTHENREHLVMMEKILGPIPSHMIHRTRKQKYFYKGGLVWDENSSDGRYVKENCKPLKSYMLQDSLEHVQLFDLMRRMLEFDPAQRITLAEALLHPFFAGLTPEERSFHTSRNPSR

Chain of Ribosomal protein S6 kinase alpha-1 (Homo sapiens) (Q15418 whole entry): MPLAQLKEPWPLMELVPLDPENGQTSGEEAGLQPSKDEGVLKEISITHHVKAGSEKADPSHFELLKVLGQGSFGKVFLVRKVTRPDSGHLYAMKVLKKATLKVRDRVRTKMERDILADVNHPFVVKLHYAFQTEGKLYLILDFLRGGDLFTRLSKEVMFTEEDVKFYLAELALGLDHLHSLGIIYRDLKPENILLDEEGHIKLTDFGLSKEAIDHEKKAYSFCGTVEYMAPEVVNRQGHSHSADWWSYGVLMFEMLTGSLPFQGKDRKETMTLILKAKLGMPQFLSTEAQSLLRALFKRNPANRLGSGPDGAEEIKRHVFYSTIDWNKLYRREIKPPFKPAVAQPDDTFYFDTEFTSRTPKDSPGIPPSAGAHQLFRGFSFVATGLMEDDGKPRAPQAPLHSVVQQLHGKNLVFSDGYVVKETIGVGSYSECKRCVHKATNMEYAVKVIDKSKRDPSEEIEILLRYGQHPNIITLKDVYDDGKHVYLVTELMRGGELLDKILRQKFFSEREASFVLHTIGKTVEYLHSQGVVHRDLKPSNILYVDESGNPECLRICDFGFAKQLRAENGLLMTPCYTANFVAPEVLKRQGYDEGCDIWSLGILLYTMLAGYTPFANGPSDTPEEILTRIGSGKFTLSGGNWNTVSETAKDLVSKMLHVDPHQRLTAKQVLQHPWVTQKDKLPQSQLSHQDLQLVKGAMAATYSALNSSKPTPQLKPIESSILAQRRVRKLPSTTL
Chain of MAP/microtubule affinity-regulating kinase 3 (Homo sapiens) (P27448 whole entry, looked up): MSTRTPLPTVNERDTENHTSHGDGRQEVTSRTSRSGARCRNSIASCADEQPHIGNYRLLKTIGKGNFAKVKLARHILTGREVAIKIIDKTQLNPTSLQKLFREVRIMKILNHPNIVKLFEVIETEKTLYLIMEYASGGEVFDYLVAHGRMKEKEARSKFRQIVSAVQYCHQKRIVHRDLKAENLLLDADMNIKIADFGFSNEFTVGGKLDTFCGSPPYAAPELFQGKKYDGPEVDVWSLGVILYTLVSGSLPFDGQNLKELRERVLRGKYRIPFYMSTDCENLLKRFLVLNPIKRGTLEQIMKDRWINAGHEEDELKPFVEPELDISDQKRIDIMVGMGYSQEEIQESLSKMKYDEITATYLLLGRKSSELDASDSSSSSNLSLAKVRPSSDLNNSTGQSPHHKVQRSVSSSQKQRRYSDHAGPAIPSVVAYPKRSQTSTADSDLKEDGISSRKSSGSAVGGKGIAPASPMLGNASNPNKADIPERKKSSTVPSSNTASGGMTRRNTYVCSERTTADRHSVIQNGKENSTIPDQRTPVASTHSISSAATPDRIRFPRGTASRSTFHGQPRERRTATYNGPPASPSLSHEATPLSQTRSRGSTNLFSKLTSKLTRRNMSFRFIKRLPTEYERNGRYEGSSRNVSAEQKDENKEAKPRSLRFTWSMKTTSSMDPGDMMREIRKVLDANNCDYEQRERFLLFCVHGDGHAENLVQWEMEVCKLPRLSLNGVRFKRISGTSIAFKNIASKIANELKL
Chain of Fibroblast growth factor receptor 4 (Homo sapiens) (P22455 22-802 limits assumed): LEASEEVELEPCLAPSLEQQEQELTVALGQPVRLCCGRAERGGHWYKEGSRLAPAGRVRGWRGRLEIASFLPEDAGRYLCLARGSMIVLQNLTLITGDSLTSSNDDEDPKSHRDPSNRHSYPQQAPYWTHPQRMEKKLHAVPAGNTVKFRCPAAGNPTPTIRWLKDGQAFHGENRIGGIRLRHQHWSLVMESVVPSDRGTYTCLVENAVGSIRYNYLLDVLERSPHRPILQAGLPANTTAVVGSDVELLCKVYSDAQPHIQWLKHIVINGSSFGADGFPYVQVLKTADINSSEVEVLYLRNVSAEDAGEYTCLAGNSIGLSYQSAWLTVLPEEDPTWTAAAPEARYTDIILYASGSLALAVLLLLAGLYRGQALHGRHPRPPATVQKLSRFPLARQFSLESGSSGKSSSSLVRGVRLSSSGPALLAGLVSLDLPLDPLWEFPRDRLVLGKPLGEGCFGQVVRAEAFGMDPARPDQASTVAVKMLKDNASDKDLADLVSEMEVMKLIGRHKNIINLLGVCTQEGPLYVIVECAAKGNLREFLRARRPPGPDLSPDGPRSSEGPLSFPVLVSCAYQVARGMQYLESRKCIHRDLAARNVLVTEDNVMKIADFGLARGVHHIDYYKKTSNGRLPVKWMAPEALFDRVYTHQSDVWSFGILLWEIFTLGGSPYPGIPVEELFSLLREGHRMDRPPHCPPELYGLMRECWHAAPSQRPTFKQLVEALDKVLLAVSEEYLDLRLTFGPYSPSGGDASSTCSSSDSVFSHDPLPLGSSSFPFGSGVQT
Chain of Vascular endothelial growth factor receptor 3 (Homo sapiens) (P35916 whole entry): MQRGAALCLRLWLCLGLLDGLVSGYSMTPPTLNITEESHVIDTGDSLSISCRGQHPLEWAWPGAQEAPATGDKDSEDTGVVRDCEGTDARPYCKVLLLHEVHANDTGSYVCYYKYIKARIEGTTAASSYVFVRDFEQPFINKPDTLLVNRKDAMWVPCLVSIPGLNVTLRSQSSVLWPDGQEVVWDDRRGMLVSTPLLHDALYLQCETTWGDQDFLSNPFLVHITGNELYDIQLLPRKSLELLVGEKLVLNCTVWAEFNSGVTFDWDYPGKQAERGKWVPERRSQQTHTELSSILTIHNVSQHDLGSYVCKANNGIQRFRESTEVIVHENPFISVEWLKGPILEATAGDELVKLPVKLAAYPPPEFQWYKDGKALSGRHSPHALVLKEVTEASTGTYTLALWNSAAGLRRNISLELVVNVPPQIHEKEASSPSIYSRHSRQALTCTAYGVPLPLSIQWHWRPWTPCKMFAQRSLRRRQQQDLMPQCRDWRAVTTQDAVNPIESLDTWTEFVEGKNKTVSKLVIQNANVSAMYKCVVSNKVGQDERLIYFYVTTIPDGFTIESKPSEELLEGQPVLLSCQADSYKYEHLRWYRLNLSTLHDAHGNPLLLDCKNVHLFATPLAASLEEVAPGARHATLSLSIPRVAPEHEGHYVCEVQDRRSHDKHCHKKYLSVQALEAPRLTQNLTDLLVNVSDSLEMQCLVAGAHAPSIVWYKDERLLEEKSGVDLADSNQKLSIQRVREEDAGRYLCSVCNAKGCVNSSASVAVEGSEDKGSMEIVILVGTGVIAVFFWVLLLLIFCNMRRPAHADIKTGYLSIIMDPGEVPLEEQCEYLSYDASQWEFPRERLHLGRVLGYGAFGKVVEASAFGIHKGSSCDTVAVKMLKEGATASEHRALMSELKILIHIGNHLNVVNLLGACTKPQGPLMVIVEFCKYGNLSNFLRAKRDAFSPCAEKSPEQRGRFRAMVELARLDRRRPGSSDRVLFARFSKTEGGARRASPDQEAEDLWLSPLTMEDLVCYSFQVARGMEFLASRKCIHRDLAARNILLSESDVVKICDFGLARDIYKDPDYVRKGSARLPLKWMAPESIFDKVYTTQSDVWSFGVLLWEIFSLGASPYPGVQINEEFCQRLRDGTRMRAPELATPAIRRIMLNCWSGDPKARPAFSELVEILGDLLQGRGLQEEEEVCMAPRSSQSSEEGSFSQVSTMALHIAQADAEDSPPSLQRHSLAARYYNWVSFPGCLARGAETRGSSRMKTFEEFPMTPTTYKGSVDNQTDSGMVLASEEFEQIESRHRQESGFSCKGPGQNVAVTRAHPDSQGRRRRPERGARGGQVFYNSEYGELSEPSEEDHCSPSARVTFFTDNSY

In the case of `C[C@H](Nc1ncnc2nc[nH]c12)c1cc2cccc(Cl)c2c(=O)n1-c1ccccc1`, the Activity was 137% in test [1]; 101% in test [2]; 100% in test [3]; 103% in test [4]; 99.7% in test [5]; 94.5% in test [6]. Besides, the Activity in test [7] turned out to be 92.3%.

Regarding `CC[C@H](Nc1ncnc2[nH]cnc12)c1nc2cccc(F)c2c(=O)n1-c1ccccc1`, the Activity in test [1] worked out at 130%; in test [2], 98.8%; in test [3], 101%; in test [4], 104%; in test [5] it was 100%; in test [6], 97.3%. Moreover, in test [7], the Activity was determined as 89%.

Consider `CC(C)Oc1ccc(-c2nn([C@@H](C)c3oc4ccc(F)cc4c(=O)c3-c3cccc(F)c3)c3ncnc(N)c23)cc1F` [UMBRALISIB], for which the Activity worked out at 100% in test [1]; 98.8% in test [2]; 104% in test [3]; 102% in test [4]; 99.4% in test [5]; 93.2% in test [6]. The Activity in test [7] amounted to 93.7%.
